{
  "source": "PubChem BioAssay AID2060898",
  "about": "(Molecular Pharmacology Branch, DTP, NCI, 2025);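 note: spheroids exposed to agents for seven days before viability readout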;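 for viability, T/C: 100% = DMSO vehicle control viability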",
  "test_system": "616215-338-R-J1-PDC complex spheroid viability",
  "assay": "Anticancer human tumor 616215-338-R-J1-PDC patient-derived colon adenocarcinoma cell line growth inhibition [RAS]",
  "conditions": "for IC50: curve of first compound; for viability, T/C: stronger effect = lower value",
  "in_short": "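Multi-cell-type spheroids: tumor cells plus HUVEC endothelial cells and mesenchymal stem cells. RAS-pathway inhibitors were combined with targeted agents, each dosed in half-log steps down from clinical Cmax, or from 10 microM when Cmax was unknown.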",
  "key": {"[1]": {"conditions": "second compound 0.0316 µM, first compound 0.0316 µM"}, "[2]": {"conditions": "second compound 0.0316 µM, first compound 0.1 µM"}, "[3]": {"conditions": "second compound 0.0316 µM, first compound 0.316 µM"}, "[4]": {"conditions": "second compound 0.0316 µM, first compound 1 µM"}, "[5]": {"conditions": "second compound 0.1 µM, first compound 0.0316 µM"}, "[6]": {"conditions": "second compound 0.1 µM, first compound 0.1 µM"}, "[7]": {"conditions": "second compound 0.1 µM, first compound 0.316 µM"}, "[8]": {"conditions": "second compound 0.1 µM, first compound 1 µM"}, "[9]": {"conditions": "second compound 0.316 µM, first compound 0.0316 µM"}, "[10]": {"conditions": "second compound 0.316 µM, first compound 0.1 µM"}, "[11]": {"conditions": "second compound 0.316 µM, first compound 0.316 µM"}, "[12]": {"conditions": "second compound 0.316 µM, first compound 1 µM"}, "[13]": {"conditions": "second compound 1 µM, first compound 0.0316 µM"}, "[14]": {"conditions": "second compound 1 µM, first compound 0.1 µM"}, "[15]": {"conditions": "second compound 1 µM, first compound 0.316 µM"}, "[16]": {"conditions": "second compound 1 µM, first compound 1 µM"}, "[17]": {"conditions": "second compound 3.16 µM, first compound 0.0316 µM"}, "[18]": {"conditions": "second compound 3.16 µM, first compound 0.1 µM"}, "[19]": {"conditions": "second compound 3.16 µM, first compound 0.316 µM"}, "[20]": {"conditions": "second compound 3.16 µM, first compound 1 µM"}, "[21]": {"conditions": "second compound 10 µM, first compound 0.0316 µM"}, "[22]": {"conditions": "second compound 10 µM, first compound 0.1 µM"}, "[23]": {"conditions": "second compound 10 µM, first compound 0.316 µM"}, "[24]": {"conditions": "second compound 10 µM, first compound 1 µM"}},
  "data": [
    {"smiles": "CC(=O)OC12COC1CC(O)C1(C)C(=O)C(O)C3=C(C)C(OC(=O)C(O)C(NC(=O)OC(C)(C)C)c4ccccc4)CC(O)(C(OC(=O)c4ccccc4)C21)C3(C)C", "note": "(centres undefined) + C#Cc1c(F)ccc2cc(O)cc(-c3ncc4c(N5CC6CCC(C5)N6)nc(OCC56CCCN5CC(F)C6)nc4c3F)c12", "values": [
      {"measurement": "IC50", "setting": "second compound 0.0316 µM", "result": "< 31.6", "unit": "nM"},
      {"measurement": "IC50", "setting": "second compound 0.1 µM", "result": "< 31.6", "unit": "nM"},
      {"measurement": "IC50", "setting": "second compound 0.316 µM", "result": "< 31.6", "unit": "nM"},
      {"measurement": "IC50", "setting": "second compound 1 µM", "result": "< 31.6", "unit": "nM"},
      {"measurement": "IC50", "setting": "second compound 3.16 µM", "result": "< 31.6", "unit": "nM"},
      {"measurement": "IC50", "setting": "second compound 10 µM", "result": "< 31.6", "unit": "nM"},
      {"measurement": "viability, T/C", "setting": "[1]", "result": 26.7, "unit": "%"},
      {"measurement": "viability, T/C", "setting": "[2]", "result": 23.1, "unit": "%"},
      {"measurement": "viability, T/C", "setting": "[3]", "result": 18.6, "unit": "%"},
      {"measurement": "viability, T/C", "setting": "[4]", "result": 18.8, "unit": "%"},
      {"measurement": "viability, T/C", "setting": "second compound 0.0316 µM, first compound 3.16 µM", "result": 22.8, "unit": "%"},
      {"measurement": "viability, T/C", "setting": "second compound 0.0316 µM, first compound 10 µM", "result": 23, "unit": "%"},
      {"measurement": "viability, T/C", "setting": "[5]", "result": 26.2, "unit": "%"},
      {"measurement": "viability, T/C", "setting": "[6]", "result": 23.6, "unit": "%"},
      {"measurement": "viability, T/C", "setting": "[7]", "result": 17.9, "unit": "%"},
      {"measurement": "viability, T/C", "setting": "[8]", "result": 18, "unit": "%"},
      {"measurement": "viability, T/C", "setting": "second compound 0.1 µM, first compound 3.16 µM", "result": 25.9, "unit": "%"},
      {"measurement": "viability, T/C", "setting": "second compound 0.1 µM, first compound 10 µM", "result": 23.3, "unit": "%"},
      {"measurement": "viability, T/C", "setting": "[9]", "result": 29.3, "unit": "%"},
      {"measurement": "viability, T/C", "setting": "[10]", "result": 21.3, "unit": "%"},
      {"measurement": "viability, T/C", "setting": "[11]", "result": 18, "unit": "%"},
      {"measurement": "viability, T/C", "setting": "[12]", "result": 18.1, "unit": "%"},
      {"measurement": "viability, T/C", "setting": "second compound 0.316 µM, first compound 3.16 µM", "result": 22.4, "unit": "%"},
      {"measurement": "viability, T/C", "setting": "second compound 0.316 µM, first compound 10 µM", "result": 22.1, "unit": "%"},
      {"measurement": "viability, T/C", "setting": "[13]", "result": 23, "unit": "%"},
      {"measurement": "viability, T/C", "setting": "[14]", "result": 19.6, "unit": "%"},
      {"measurement": "viability, T/C", "setting": "[15]", "result": 20.9, "unit": "%"},
      {"measurement": "viability, T/C", "setting": "[16]", "result": 17.1, "unit": "%"},
      {"measurement": "viability, T/C", "setting": "second compound 1 µM, first compound 3.16 µM", "result": 19.1, "unit": "%"},
      {"measurement": "viability, T/C", "setting": "second compound 1 µM, first compound 10 µM", "result": 19.4, "unit": "%"},
      {"measurement": "viability, T/C", "setting": "[17]", "result": 20.7, "unit": "%"},
      {"measurement": "viability, T/C", "setting": "[18]", "result": 17.4, "unit": "%"},
      {"measurement": "viability, T/C", "setting": "[19]", "result": 15.9, "unit": "%"},
      {"measurement": "viability, T/C", "setting": "[20]", "result": 15.1, "unit": "%"},
      {"measurement": "viability, T/C", "setting": "second compound 3.16 µM, first compound 3.16 µM", "result": 17.9, "unit": "%"},
      {"measurement": "viability, T/C", "setting": "second compound 3.16 µM, first compound 10 µM", "result": 23.4, "unit": "%"},
      {"measurement": "viability, T/C", "setting": "[21]", "result": 14.5, "unit": "%"},
      {"measurement": "viability, T/C", "setting": "[22]", "result": 14.9, "unit": "%"},
      {"measurement": "viability, T/C", "setting": "[23]", "result": 16.1, "unit": "%"},
      {"measurement": "viability, T/C", "setting": "[24]", "result": 13, "unit": "%"},
      {"measurement": "viability, T/C", "setting": "second compound 10 µM, first compound 3.16 µM", "result": 17.5, "unit": "%"},
      {"measurement": "viability, T/C", "setting": "second compound 10 µM, first compound 10 µM", "result": 12.3, "unit": "%"}
    ]},
    {"smiles": "Nc1ccn(C2OC(CO)C(O)C2(F)F)c(=O)n1", "note": "(centres undefined) + C#Cc1c(F)ccc2cc(O)cc(-c3ncc4c(N5CC6CCC(C5)N6)nc(OCC56CCCN5CC(F)C6)nc4c3F)c12", "values": [
      {"measurement": "IC50", "setting": "second compound 0.0316 µM", "result": 9.25, "unit": "nM"},
      {"measurement": "IC50", "setting": "second compound 0.1 µM", "result": 9.98, "unit": "nM"},
      {"measurement": "IC50", "setting": "second compound 0.316 µM", "result": 9.74, "unit": "nM"},
      {"measurement": "IC50", "setting": "second compound 1 µM", "result": 5.94, "unit": "nM"},
      {"measurement": "IC50", "setting": "second compound 3.16 µM", "result": 3.91, "unit": "nM"},
      {"measurement": "IC50", "setting": "second compound 10 µM", "result": 3.26, "unit": "nM"},
      {"measurement": "viability, T/C", "setting": "second compound 0.0316 µM, first compound 0.00316 µM", "result": 113, "unit": "%"},
      {"measurement": "viability, T/C", "setting": "second compound 0.0316 µM, first compound 0.01 µM", "result": 44.9, "unit": "%"},
      {"measurement": "viability, T/C", "setting": "[1]", "result": 24.6, "unit": "%"},
      {"measurement": "viability, T/C", "setting": "[2]", "result": 13, "unit": "%"},
      {"measurement": "viability, T/C", "setting": "[3]", "result": 13.2, "unit": "%"},
      {"measurement": "viability, T/C", "setting": "[4]", "result": 16.3, "unit": "%"},
      {"measurement": "viability, T/C", "setting": "second compound 0.1 µM, first compound 0.00316 µM", "result": 117, "unit": "%"},
      {"measurement": "viability, T/C", "setting": "second compound 0.1 µM, first compound 0.01 µM", "result": 48.8, "unit": "%"},
      {"measurement": "viability, T/C", "setting": "[5]", "result": 28.1, "unit": "%"},
      {"measurement": "viability, T/C", "setting": "[6]", "result": 14.9, "unit": "%"},
      {"measurement": "viability, T/C", "setting": "[7]", "result": 14.4, "unit": "%"},
      {"measurement": "viability, T/C", "setting": "[8]", "result": 14.6, "unit": "%"},
      {"measurement": "viability, T/C", "setting": "second compound 0.316 µM, first compound 0.00316 µM", "result": 90, "unit": "%"},
      {"measurement": "viability, T/C", "setting": "second compound 0.316 µM, first compound 0.01 µM", "result": 48.5, "unit": "%"},
      {"measurement": "viability, T/C", "setting": "[9]", "result": 28.4, "unit": "%"},
      {"measurement": "viability, T/C", "setting": "[10]", "result": 15.6, "unit": "%"},
      {"measurement": "viability, T/C", "setting": "[11]", "result": 13.9, "unit": "%"},
      {"measurement": "viability, T/C", "setting": "[12]", "result": 14.8, "unit": "%"},
      {"measurement": "viability, T/C", "setting": "second compound 1 µM, first compound 0.00316 µM", "result": 77, "unit": "%"},
      {"measurement": "viability, T/C", "setting": "second compound 1 µM, first compound 0.01 µM", "result": 24.4, "unit": "%"},
      {"measurement": "viability, T/C", "setting": "[13]", "result": 26.7, "unit": "%"},
      {"measurement": "viability, T/C", "setting": "[14]", "result": 12.7, "unit": "%"},
      {"measurement": "viability, T/C", "setting": "[15]", "result": 10.8, "unit": "%"},
      {"measurement": "viability, T/C", "setting": "[16]", "result": 12.1, "unit": "%"},
      {"measurement": "viability, T/C", "setting": "second compound 3.16 µM, first compound 0.00316 µM", "result": 55.9, "unit": "%"},
      {"measurement": "viability, T/C", "setting": "second compound 3.16 µM, first compound 0.01 µM", "result": 24.1, "unit": "%"},
      {"measurement": "viability, T/C", "setting": "[17]", "result": 19, "unit": "%"},
      {"measurement": "viability, T/C", "setting": "[18]", "result": 10.6, "unit": "%"},
      {"measurement": "viability, T/C", "setting": "[19]", "result": 11.6, "unit": "%"},
      {"measurement": "viability, T/C", "setting": "[20]", "result": 12.1, "unit": "%"},
      {"measurement": "viability, T/C", "setting": "second compound 10 µM, first compound 0.00316 µM", "result": 50.9, "unit": "%"},
      {"measurement": "viability, T/C", "setting": "second compound 10 µM, first compound 0.01 µM", "result": 21.4, "unit": "%"},
      {"measurement": "viability, T/C", "setting": "[21]", "result": 16.3, "unit": "%"},
      {"measurement": "viability, T/C", "setting": "[22]", "result": 12.4, "unit": "%"},
      {"measurement": "viability, T/C", "setting": "[23]", "result": 10, "unit": "%"},
      {"measurement": "viability, T/C", "setting": "[24]", "result": 10.9, "unit": "%"}
    ]}
  ]
}
